The results in this text go back to PubChem BioAssay AID488810 (Sanford-Burnham Center for Chemical Genomics, 2010).

pIC50: −log10 of the molar value. Calls of active or inactive are those of the source.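 The calls were made as follows: active = compounds with IC50 below 20 µM; inactive = the rest.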 Some results are limits rather than exact numbers.

This experiment deals with Type-1 angiotensin II receptor (Homo sapiens) (UniProt P30556). As to the kind of experiment: AGTR1 antagonism selectivity check – cell-based, CHO-K1 PathHunter, luminescence, selectivity assay for APJ antagonist project, SAR follow-up (AID 488810).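 Also: agonist challenge with angiotensin II at 50 nM final near its EC80.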 Particulars: CHO-K1 AGTR1 PathHunter beta-arrestin, antagonist mode.
Chain of Type-1 angiotensin II receptor (Homo sapiens) (P30556 whole entry, looked up): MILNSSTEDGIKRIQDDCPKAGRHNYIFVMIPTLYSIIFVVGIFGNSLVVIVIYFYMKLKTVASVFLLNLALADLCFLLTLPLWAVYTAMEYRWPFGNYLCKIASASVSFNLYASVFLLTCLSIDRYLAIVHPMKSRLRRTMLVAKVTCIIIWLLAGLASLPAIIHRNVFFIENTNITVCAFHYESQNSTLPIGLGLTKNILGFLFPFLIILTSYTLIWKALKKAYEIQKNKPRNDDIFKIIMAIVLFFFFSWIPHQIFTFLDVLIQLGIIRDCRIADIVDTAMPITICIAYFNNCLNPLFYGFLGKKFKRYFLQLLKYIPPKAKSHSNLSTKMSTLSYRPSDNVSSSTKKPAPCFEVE
In the case of `O=C1Nc2ccccc2C1=Nc1ccc(Br)cc1`, the pIC50 – broadly, the negative decadic logarithm of the IC50, by convention in mol/L – was 5.18. Still for that read-out and setting: for `FC(F)(F)c1cccc(Sc2nc(-c3ccccc3)nnc2C(F)(F)F)c1` the value was 4.75; for `S=C1NCCc2ccccc2C1c1ccccc1Cl` (centres undefined), 4.78. On to `Cc1ccnc(SCc2cc(=O)c(OC(=O)c3ccc(C#N)cc3)co2)n1`, for which the IC50 (usually the concentration at which inhibition is half-maximal) is > 79 µM (inactive). Regarding `O=C(Oc1coc(CSc2ncccn2)cc1=O)c1ccc(Cl)c([N+](=O)[O-])c1`, the IC50 is > 79 µM (inactive). Regarding `O=C(Oc1coc(CSc2ncccn2)cc1=O)c1ccc([N+](=O)[O-])cc1`, the IC50 is > 79 µM (inactive).

Take `Cc1ccc(N=C2C(=O)Nc3c(C)cccc32)cc1`: the IC50 result was “inactive”. On the same count and under the same terms, for `N#Cc1ccc(C(=O)Oc2coc(CSc3ncccn3)cc2=O)cc1` the value was > 79 µM (inactive); for `C=CCOc1cccc(CSc2nc(C)cc(C)n2)c1`, > 79 µM (inactive).

Consider `CCN(CC)S(=O)(=O)c1ccc(C(=O)Oc2coc(CSc3ncccn3)cc2=O)cc1`, for which the IC50 is > 79 µM (inactive). For the molecule `C=CCOc1ccc(CSc2nc(C)cc(C)n2)cc1Cl`, the IC50 is > 79 µM (inactive). With `Cc1ccccc1NCC(=O)c1ccc(Cl)cc1`, the pIC50 was 5.76.

On to `O=C(Oc1coc(CSc2ncccn2)cc1=O)c1cc(Cl)ccc1[N+](=O)[O-]`, for which the IC50 entry was “inactive”. Same read-out and setting: the figure for `Cc1cc(C)nc(SCc2ccc(OC(=O)c3ccccc3)c(Cl)c2)n1` is > 79 µM (inactive). The same measure, in the same setting: for `O=C(Oc1coc(CSc2ncccn2)cc1=O)c1ccc(Cl)cc1` the value was > 79 µM (inactive).

For `O=C(CNc1ccc(Br)cc1)c1ccccc1`, the pIC50 was 5.58.

Regarding `O=C(CNC(=O)c1ccco1)NCC(=O)OCC(=O)c1ccc(Cl)c([N+](=O)[O-])c1`, the pIC50 was 5.32.

As for `CNC(=O)c1nnsc1S(=O)(=O)c1ccc(Cl)cc1`, the pIC50 is 5.00.

For the molecule `CC(C)Oc1ccc(C(=O)Oc2coc(CSc3ncccn3)cc2=O)cc1`, the IC50 is > 79 µM (inactive). For `O=C(Oc1coc(CSc2ncccn2)cc1=O)c1ccc(S(=O)(=O)N2CCOCC2)cc1`, the IC50 was > 79 µM (inactive). On the same count and under the same terms, for `Cc1ccnc(SCc2cc(=O)c(OC(=O)c3cc(Cl)ccc3[N+](=O)[O-])co2)n1` the value was “inactive”; for `Cc1ccnc(SCc2cc(=O)c(O)co2)n1`, > 79 µM (inactive); for `Cc1cccc(C(=O)Oc2coc(CSc3nccc(C)n3)cc2=O)c1`, > 79 µM (inactive). Consider `Cc1c(O)ccc2c1OC1(CC2c2ccccc2Cl)CC(C)(C)NC(=O)N1` (centres undefined), for which the IC50 was > 79 µM (inactive). Same read-out and setting: the entry for `COc1ccc(S(=O)(=O)NNc2nc(C)cc(C)n2)cc1Br` is “inactive”.

For the molecule `O=C1Nc2ccccc2C1=Nc1ccc(F)cc1`, the pIC50 was 5.02. The same measure, in the same setting: for `CC(C)Cc1nc2oc3c(Cl)ncnc3c2c2c1CCC2` the value was 4.83. Same read-out and setting: the figure for `O=C(COC(=O)c1ccncc1)c1ccc(Cl)c(Cl)c1` is 4.70. As for `O=C(COC(=O)c1cccnc1)c1ccc(Cl)c(Cl)c1`, the IC50 entry is “inactive”. On the same count and under the same terms, the figure for `COc1ccc(NC2C(=O)Nc3ccccc32)cc1` (centres undefined) is > 79 µM (inactive); for `C=CCSC1=NC2(CC(c3ccc(C)cc3)c3c(C)cc(OC(C)=O)cc3O2)CC(C)(C)N1` (centres undefined) it is > 79 µM (inactive). The same measure, in the same setting: the figure for `Cc1ccnc(SCc2cc(=O)c(OC(=O)c3ccc(F)cc3)co2)n1` is > 79 µM (inactive). As to `Cc1ccc(NCC(=O)c2ccccc2)cc1`, the pIC50 was 5.59. For the molecule `CN(C)S(=O)(=O)c1ccc(C(=O)Oc2coc(CSc3ncccn3)cc2=O)cc1`, the IC50 is > 79 µM (inactive). As to `C=CCOc1cccc(CSc2ncccn2)c1`, the IC50 was > 79 µM (inactive). Regarding `O=c1cc(CSc2ccccc2)occ1O`, the IC50 was > 79 µM (inactive).

Consider `Oc1cccc(CSc2ncccn2)c1`, for which the IC50 was > 79 µM (inactive). As for `CC(=O)c1ccc(N=C2C(=O)Nc3ccccc32)cc1`, the pIC50 was 5.89. For `CC1(C)CC2(CC(c3ccc(Cl)cc3)c3ccc(O)cc3O2)NC(=S)N1` (centres undefined), the IC50 entry is “inactive”. In the case of `O=C(Nc1nc2c(F)cc(F)cc2s1)c1ccccn1`, the pIC50 is 5.34. Turning to `CC(C(=O)OCC(=O)c1cccc([N+](=O)[O-])c1)N1C(=O)C2C3C=CC(C3)C2C1=O` (centres undefined), the IC50 entry is “inactive”. On the same count and under the same terms, the figure for `COc1ccc(C2CC3(CC(C)(C)NC(=S)N3)Oc3cc(OC(C)=O)cc(C)c32)cc1` (centres undefined) is > 79 µM (inactive); for `COc1ccc(C(=O)Oc2coc(CSc3nccc(C)n3)cc2=O)cc1` it is > 79 µM (inactive). As for `CCC1CCCCN1CC(=O)c1ccc(OC(F)F)cc1` (centres undefined), the IC50 entry was “inactive”. On the same count and under the same terms, for `O=C(CNS(=O)(=O)c1ccccc1)OCC(=O)c1cccc([N+](=O)[O-])c1` the value was “inactive”; for `O=C(Oc1coc(CSc2ncccn2)cc1=O)c1ccc(F)cc1`, > 79 µM (inactive).

`Cc1cc(C)nc(NNS(=O)(=O)c2ccc(Cl)cc2)n1`: the pIC50 is 4.91. As to `Cc1ccnc(SCc2cc(=O)c(OC(=O)c3ccc(S(=O)(=O)N4CCCC4)cc3)co2)n1`, the IC50 was > 79 µM (inactive).

As for `O=C(Oc1coc(CSc2ncccn2)cc1=O)c1cc([N+](=O)[O-])ccc1Cl`, the IC50 entry was “inactive”.

For the molecule `Cc1ccnc(SCc2cc(=O)c(OC(=O)c3cccc(Cl)c3)co2)n1`, the IC50 is > 79 µM (inactive). On to `O=C(Oc1coc(CSc2ncccn2)cc1=O)c1ccc(-c2ccccc2)cc1`, for which the IC50 was > 79 µM (inactive). Take `CC(C)N1CCc2c(sc(NC(=O)c3cc(-c4cccs4)nc4ccccc34)c2C(N)=O)C1`: the IC50 result is “inactive”. Consider `O=C(COC(=O)c1cnccn1)c1ccc(Cl)c([N+](=O)[O-])c1`, for which the pIC50 is 5.01. For the molecule `CC1(C)CC2(CC(c3ccccc3Cl)c3ccc(O)cc3O2)NC(=S)N1` (centres undefined), the IC50 entry was “inactive”.

With `CC1(C)CC2(CC(c3ccccc3Cl)c3ccc(OC(=O)c4ccccc4)cc3O2)NC(=S)N1` (centres undefined), the IC50 is > 79 µM (inactive). The same measure, in the same setting: the entry for `COc1ccc(S(=O)(=O)NNc2nc(C)cc(C)n2)cc1[N+](=O)[O-]` is “inactive”; for `O=C(Oc1coc(CSc2ncccn2)cc1=O)c1ccc(C(F)(F)F)cc1` it is > 79 µM (inactive). With `Cc1cc(C)nc(SCc2cccc(O)c2)n1`, the IC50 was > 79 µM (inactive).

For `CCC[N+](CC#Cc1ccccc1)(CCC)CC(=O)c1ccc(Cl)cc1`, the IC50 result was “inactive”.
